Our source for the IC50 values is US9045461B2, “Phenyl-heteroaryl derivatives and methods of use thereof” (TransTech Pharma, LLC, priority 2010, dated 2015).

Assay [1] deals with T1, sRAGE binding to S100b (Homo sapiens, UniProt Q15109).
T1 construct: extracellular domain can be isolated by proteolysis of RAGE to generate soluble RAGE (sRAGE) comprised of the V and C domains
Description: RAGE binding assay (ELISA), S100b as the RAGE ligand. The note with it: compounds tested in hydrochloride salt form, concentration at which 50% signal has been inhibited. On the procedure: (§1) The following assay method may be used to identify compounds of Formula (I) or pharmaceutically acceptable salts thereof which are useful as inhibitors of binding of physiological RAGE ligands, such as S100b and β-amyloid, to RAGE.
(§2) S100b, β-amyloid, or CML (500 ng/100 μL/well) in 100 mM sodium bicarbonate/sodium carbonate buffer (pH 9.8) is loaded onto the wells of a NUNC Maxisorp flat bottom 96-well microtitre plate. The plate is incubated at 4° C. overnight. The wells are aspirated and treated with 50 mM imidazole buffer saline (pH 7.2) (with 5 mM CaCl2/MgCl2) containing 1% bovine serum albumin (BSA) (300 μL/well) for 1 h at RT. The wells are aspirated.
(§3) Test compounds are dissolved in nanopure water (concentration: 10-100 μM). DMSO may be used as co-solvent. 25 μL of test compound solution in 4% DMSO is added, along with 75 μL sRAGE (6 nM FAC) to each well and samples are incubated for 1 h at 37° C. The wells are washed several times with 155 mM NaCl pH 7.2 buffer saline and are soaked for several seconds between each wash.
(§4) Non-radioactive detection is performed by adding:
(§5) 10 μL Biotinylated goat F(ab′)2 Anti-mouse IgG. (8.0×10-4 mg/mL, FAC), 5 μL Alk-phos-Streptavidin (3×10-3 mg/mL FAC), 0.42 μL per 5 mL Monoclonal antibody for sRAGE (FAC 6.0×10-3 mg/mL) to 5 mL 50 mM imidazole buffer saline (pH 7.2) containing 0.2% bovine serum albumin and 5 mM CaCl2. The mixture is incubated for 30 minutes at RT.
(§6) 100 μL of complex is added to each well and incubation is allowed to proceed at rt for 1 h. Wells are washed several times with wash buffer and soaked several seconds between each wash. 100 μL 1 mg/mL (pNPP) in 1 M diethanolamine (pH adjusted to 9.8 with HCl) is added. Color is allowed to develop in the dark for 30 min to 1 h at rt. The reaction is quenched with 10 μL of stop solution (0.5-1.0 N NaOH in 50% ethanol) and the absorbance is measured spectrophotometrically with a microplate reader at 405 nm.
(§7) The IC50 (μM) value in the ELISA assay represents the concentration of compound at which 50% signal has been inhibited.

Assay [2] addresses T2, sRAGE binding to β-amyloid (Homo sapiens, UniProt Q15109).
T2 construct: extracellular domain can be isolated by proteolysis of RAGE to generate soluble RAGE (sRAGE) comprised of the V and C domains
Description: RAGE binding assay (ELISA), β-amyloid as the RAGE ligand. The following applies: compounds tested in hydrochloride salt form, concentration at which 50% signal has been inhibited. On the procedure: as §1, §2, §3, §4, §5, §6, §7
Background: ELISA stands for enzyme-linked immunosorbent assay.

SMILES strings stand for the structures. Structures can show the parent of a compound that is named as a salt.

T1 sequence (Q15109 23-342 limits assumed): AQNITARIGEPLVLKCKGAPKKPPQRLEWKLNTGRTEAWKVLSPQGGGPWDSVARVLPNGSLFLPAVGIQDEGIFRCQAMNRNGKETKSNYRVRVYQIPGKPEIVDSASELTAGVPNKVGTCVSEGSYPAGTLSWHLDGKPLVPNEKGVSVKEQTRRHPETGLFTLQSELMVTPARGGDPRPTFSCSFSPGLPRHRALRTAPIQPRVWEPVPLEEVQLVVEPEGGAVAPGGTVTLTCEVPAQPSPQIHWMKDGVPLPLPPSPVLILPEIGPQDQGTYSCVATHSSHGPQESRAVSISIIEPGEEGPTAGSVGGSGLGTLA
T2 sequence (Q15109 23-342 limits assumed): as above

Turning to `CCCCc1nnc(OC2CCN(CCc3nnc(C)o3)CC2)cc1-c1ccc(OC2CCCCC2)cc1` [Example 20, 3-Butyl-4-(4-cyclohexyloxy-phenyl)-6-{1-[2-(5-methyl-[1,3,4]oxadiazol-2-yl)-ethyl]-piperidin-4-yloxy}-pyridazine dihydrochloride], the IC50 in assay [1] is 1.46 µM; in assay [2], 2.23 µM.

For `CCCCc1nnc(C(=O)NC[C@@H](O)CN(C)C)cc1-c1ccc(OC2CCCCC2)cc1` [Example 88, 6-Butyl-5-(4-cyclohexyloxy-phenyl)-pyridazine-3-carboxylic acid ((R)-3-dimethylamino-2-hydroxy-propyl)-amide dihydrochloride], the IC50 in assay [1] was determined as 2.03 µM; in assay [2] it was 2.46 µM.

On to `CCCCc1nnc(C(=O)NCC2(O)CCN(C)CC2)cc1-c1ccc(OC2CCCCC2)cc1` [Example 94, 6-Butyl-5-(4-cyclohexyloxy-phenyl)-pyridazine-3-carboxylic acid (4-hydroxy-1-methyl-piperidin-4-ylmethyl)-amide dihydrochloride], for which the IC50 was found to be 2.55 µM in assay [1] and 1.95 µM in assay [2].

For the molecule `CCCCc1nnc(C(=O)N2CC[C@@H](CN(C)C)[C@@H](OC)C2)cc1-c1ccc(OC2CCCCC2)cc1` (racemic) [Example 102, (±)-cis-[6-Butyl-5-(4-cyclohexyloxy-phenyl)-pyridazin-3-yl]-((3R,4S)-4-dimethylaminomethyl-3-methoxy-piperidin-1-yl)-methanone dihydrochloride], the IC50 in assay [1] turned out to be 2.61 µM; in assay [2], 1.46 µM.

Consider `CCCCc1nnc(OCC[C@H]2CCCCN2C)cc1-c1ccc(OC2CCCCC2)cc1` [Example 32, 3-Butyl-4-(4-cyclohexyloxy-phenyl)-6-[2-((R)-1-methyl-piperidin-2-yl)-ethoxy]-pyridazine dihydrochloride], for which the half-maximal inhibitory concentration (IC50) in assay [1] worked out at 2.78 µM; in assay [2], 1.78 µM.

`CCCCc1nnc(C(=O)NCC2CCN(C)CC2)cc1-c1ccc(OC2CCCCC2)cc1` [Example 103, 6-Butyl-5-(4-cyclohexyloxy-phenyl)-pyridazine-3-carboxylic acid (1-methyl-piperidin-4-ylmethyl)-amide dihydrochloride]: the IC50 in assay [1] was 1.77 µM; in assay [2] it was 1.11 µM.

For `CCCCc1nnc(OCC2CN(C)CCO2)cc1-c1ccc(OC2CCCCC2)cc1` (stereo not shown) [Example 34, 2-[6-Butyl-5-(4-cyclohexyloxy-phenyl)-pyridazin-3-yloxymethyl]-4-methyl-morpholine dihydrochloride], the values for the IC50 in assay [1] and in assay [2] were 2.93 µM and 2.58 µM, respectively.

On to `CCCCc1nnc(C(=O)NCC2(F)CCN(C)CC2)cc1-c1ccc(OC2CCCCC2)cc1` [Example 109, 6-Butyl-5-(4-cyclohexyloxy-phenyl)-pyridazine-3-carboxylic acid (4-fluoro-1-methyl-piperidin-4-ylmethyl)-amide dihydrochloride], for which the results for the IC50 in assay [1] and in assay [2] were 5.84 µM and 5.83 µM, respectively.

As for `CCCCc1nnc(O[C@H]2CCN(C)C2)cc1-c1ccc(OC2CCCCC2)cc1` [Example 30, 3-Butyl-4-(4-cyclohexyloxy-phenyl)-6-((S)-1-methyl-pyrrolidin-3-yloxy)-pyridazine dihydrochloride], the 50% inhibitory concentration (IC50) is 1.82 µM in assay [1] and 2.59 µM in assay [2].

In the case of `CCCCc1nnc(O[C@H]2CCN(C)C[C@@H]2F)cc1-c1ccc(OC2CCCCC2)cc1` (racemic) [Example 41, (±)-trans-3-Butyl-4-(4-cyclohexyloxy-phenyl)-6-(3-fluoro-1-methylpiperidin-4-yloxy)-pyridazine dihydrochloride], the IC50 in assay [1] worked out at 2.19 µM; in assay [2], 4.04 µM.

As for `CCCCc1nnc(OC2CCN(C)CC2)cc1-c1ccc(OCC2CCC(C(=O)N(C)C)CC2)cc1` (stereo not shown) [Example 56, 4-{4-[3-butyl-6-(1-methyl-piperidin-4-yloxy)-pyridazin-4-yl]-phenoxymethyl}-cyclohexanecarboxylic acid dimethylamide dihydrochloride], the results for the IC50 in assay [1] and in assay [2] were 1.8 µM and 2.43 µM, respectively.

With `CCCCc1nnc(C(=O)NCC2CN(C)CCC2(F)F)cc1-c1ccc(OC2CCCCC2)cc1` (stereo not shown) [Example 99, 6-Butyl-5-(4-cyclohexyloxy-phenyl)-pyridazine-3-carboxylic acid (4,4-difluoro-1-methyl-piperidin-3-ylmethyl)-amide dihydrochloride], the IC50 in assay [1] amounted to 1.82 µM; in assay [2] it was 1.81 µM.

As to `CN1CCC(Oc2cc(-c3ccc(OC4CCCCC4)cc3)c(C3CCC3)nn2)CC1` [Example 61, 3-cyclobutyl-4-(4-cyclohexyloxy-phenyl)-6-(1-methyl-piperidin-4-yloxy)-pyridazine dihydrochloride], the figures for the IC50 in assay [1] and in assay [2] were 3.4 µM and 3.72 µM, respectively.

As to `CCCCc1nnc(C(=O)N2CCC(O)C(CN(C)C)C2)cc1-c1ccc(OC2CCCCC2)cc1` (stereo not shown) [Example 106, [6-Butyl-5-(4-cyclohexyloxy-phenyl)-pyridazin-3-yl]-(3-dimethylaminomethyl-4-hydroxyoxy-piperidin-1-yl)-methanone dihydrochloride], the 50% inhibitory concentration (IC50) in assay [1] came to 2.18 µM; in assay [2], 1.75 µM.

Turning to `CCCCc1nnc(OC2CCN(C)CC2)cc1-c1ccc(OC2CCCCC2)c(C#N)c1` [Example 67, 5-[3-Butyl-6-(1-methyl-piperidin-4-yloxy)-pyridazin-4-yl]-2-cyclohexyloxy-benzonitrile dihydrochloride], the IC50 amounted to 1.7 µM in assay [1] and 3.2 µM in assay [2].

As to `CCCCc1nnc(OCCCN2CCOCC2)cc1-c1ccc(OCc2ccccc2)cc1` [Example 8, 4-{3-[5-(4-Benzyloxy-phenyl)-6-butyl-pyridazin-3-yloxy]-propyl}-morpholine dihydrochloride], the concentration for half-maximal inhibition (IC50) in assay [1] amounted to 4.84 µM; in assay [2], 3.72 µM.

Turning to `CCCCc1nnc(C(=O)N[C@@H]2CN3CCC2CC3)cc1-c1ccc(OC2CCCCC2)cc1` [Example 85, (S)-6-Butyl-5-(4-cyclohexyloxy-phenyl)-pyridazine-3-carboxylic acid (1-aza-bicyclo[2.2.2]oct-3-yl)-amide dihydrochloride], the results for the IC50 in assay [1] and in assay [2] were 1.49 µM and 1.97 µM, respectively.

As to `CCCCc1nnc(OC2CCN(CCc3nnn(C)n3)CC2)cc1-c1ccc(OC2CCCCC2)cc1` [Example 21, 3-Butyl-4-(4-cyclohexyloxy-phenyl)-6-{1-[2-(2-methyl-2H-tetrazol-5-yl)-ethyl]-piperidin-4-yloxy}-pyridazine dihydrochloride], the concentration for half-maximal inhibition (IC50) was determined as 1.34 µM in assay [1] and 1.53 µM in assay [2].

Turning to `CCCCc1nnc(OC[C@H]2CN(C)CC[C@@H]2OC)cc1-c1ccc(OC2CCCCC2)cc1` (racemic) [Example 46, (±)-trans-3-Butyl-4-(4-cyclohexyloxy-phenyl)-6-(4-methoxy-1-methyl-piperidin-3-ylmethoxy)-pyridazine dihydrochloride], the figures for the half-maximal inhibitory concentration (IC50) in assay [1] and in assay [2] were 1.35 µM and 1.25 µM, respectively.

Turning to `CCCCc1nnc(OC[C@H]2CCN(C)C[C@H]2O)cc1-c1ccc(OC2CCCCC2)cc1` (racemic) [Example 24, (±)-cis-4-[6-Butyl-5-(4-cyclohexyloxy-phenyl)-pyridazin-3-yloxymethyl]-1-methyl-piperidin-3-ol dihydrochloride], the 50% inhibitory concentration (IC50) worked out at 2.64 µM in assay [1] and 2.9 µM in assay [2].

By IC50 is commonly meant the concentration needed to halve the response being measured.
